Assay [1] concerns the target KRAS^G12C-SOS1 (Homo sapiens (Human), UniProt P01116, G12C). Description: HTRF KRAS G12C/SOS1 binding assay. The note with it: Table 5. Put shortly: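 Compound was serially diluted five-fold over eight points, with a 2 mM DMSO stock. After anti-tag-Tb3+ and anti-tag-XL665 were added, plates were incubated 3 h at 4 °C and read by HTRF (ex 337 nm, em 620/665 nm ratio). IC50 values come from four-parameter variable-slope fits.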
In general terms: In TR-FRET formats the signal depends on donor and acceptor labels being close together.

The subject of assay [2] is MIA PaCa-2-AMGR drug-resistant cell line. Nature of the assay: MIA PaCa-2-AMGR drug-resistant cell proliferation inhibitory activity test. Format: cell-based. The note with it: MIA PaCa-2-AMGR drug-resistant cells, 3 days incubation, CellTiter-Glo. Summed up:
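MIA PaCa-2 line made resistant by stepwise AMG510 exposure up to 1 μM. Cells seeded at 4×10^3/well overnight, then treated with 8 concentrations (5-fold dilutions) for 3 days at 37° C, 5% CO2 in DMEM with 10% FBS + 2.5% horse serum. Viability by CellTiter-Glo luminescence; IC50 versus no-inhibitor control.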

The target in assay [3] is PI3Kδ (Homo sapiens (Human), UniProt O00329). Nature of the assay: Inhibition of PI3Kδ efficacy assay (ADP-Glo kinase assay). Format: biochemical. Conditions: read-out: PI3Kδ inhibitory activity (IC50). Summed up: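 Luminescent ADP-Glo readout of PI3Kδ: after a 60 min RT reaction with PI/ATP substrate, ATP depletion (40 min) and ADP detection (40 min) steps followed. Compounds tested as eight five-fold serial dilutions; inhibition rates fitted to log(inhibitor) vs. response, variable slope, for IC50.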
Chain of PI3Kδ (O00329 whole entry): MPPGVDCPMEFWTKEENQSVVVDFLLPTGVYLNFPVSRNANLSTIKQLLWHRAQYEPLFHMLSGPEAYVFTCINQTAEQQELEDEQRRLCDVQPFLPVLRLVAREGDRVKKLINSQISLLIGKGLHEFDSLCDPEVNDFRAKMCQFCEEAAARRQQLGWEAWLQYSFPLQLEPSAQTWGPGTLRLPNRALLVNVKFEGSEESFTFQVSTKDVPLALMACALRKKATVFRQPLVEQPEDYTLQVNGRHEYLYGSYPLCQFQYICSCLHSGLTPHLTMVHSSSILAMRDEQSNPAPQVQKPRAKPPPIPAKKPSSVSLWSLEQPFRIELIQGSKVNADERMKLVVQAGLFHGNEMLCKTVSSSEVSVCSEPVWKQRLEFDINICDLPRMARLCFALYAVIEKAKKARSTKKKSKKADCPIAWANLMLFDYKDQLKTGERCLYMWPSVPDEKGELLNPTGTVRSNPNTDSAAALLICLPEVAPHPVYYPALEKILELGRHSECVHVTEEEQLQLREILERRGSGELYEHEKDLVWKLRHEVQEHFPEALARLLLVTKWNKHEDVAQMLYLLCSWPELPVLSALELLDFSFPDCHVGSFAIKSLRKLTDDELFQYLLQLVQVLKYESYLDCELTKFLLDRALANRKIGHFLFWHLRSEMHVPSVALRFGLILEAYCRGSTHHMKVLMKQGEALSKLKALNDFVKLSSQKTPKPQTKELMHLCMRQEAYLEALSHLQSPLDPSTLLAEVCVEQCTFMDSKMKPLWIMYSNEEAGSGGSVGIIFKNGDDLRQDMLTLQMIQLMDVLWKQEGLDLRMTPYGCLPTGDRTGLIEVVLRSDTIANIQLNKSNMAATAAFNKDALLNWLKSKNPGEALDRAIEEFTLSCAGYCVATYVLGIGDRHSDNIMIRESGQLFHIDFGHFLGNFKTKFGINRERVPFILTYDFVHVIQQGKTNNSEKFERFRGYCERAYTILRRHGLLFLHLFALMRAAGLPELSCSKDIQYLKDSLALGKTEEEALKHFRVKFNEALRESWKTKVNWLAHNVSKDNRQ
Chain of PI3Kδ (P27986 whole entry partner): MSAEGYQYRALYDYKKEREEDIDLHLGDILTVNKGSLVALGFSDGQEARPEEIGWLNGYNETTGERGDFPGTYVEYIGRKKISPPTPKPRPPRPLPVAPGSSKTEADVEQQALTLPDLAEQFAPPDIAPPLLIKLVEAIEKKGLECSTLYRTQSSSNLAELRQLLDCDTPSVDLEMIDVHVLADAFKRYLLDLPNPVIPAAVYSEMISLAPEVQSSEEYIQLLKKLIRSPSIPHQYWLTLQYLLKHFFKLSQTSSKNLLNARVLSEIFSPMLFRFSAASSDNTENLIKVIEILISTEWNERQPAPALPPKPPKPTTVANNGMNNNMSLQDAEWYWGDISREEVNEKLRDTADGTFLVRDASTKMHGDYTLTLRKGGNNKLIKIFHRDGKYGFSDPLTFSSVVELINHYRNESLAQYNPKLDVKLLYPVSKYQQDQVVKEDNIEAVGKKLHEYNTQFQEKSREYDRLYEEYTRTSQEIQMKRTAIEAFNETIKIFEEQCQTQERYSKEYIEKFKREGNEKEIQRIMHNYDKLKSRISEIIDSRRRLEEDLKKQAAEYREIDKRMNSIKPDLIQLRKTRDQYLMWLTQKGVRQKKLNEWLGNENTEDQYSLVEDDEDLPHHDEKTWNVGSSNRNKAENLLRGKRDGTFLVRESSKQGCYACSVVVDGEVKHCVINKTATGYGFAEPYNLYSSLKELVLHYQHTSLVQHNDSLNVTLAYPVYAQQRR
In general terms: ADP-Glo turns the ADP formed in a reaction into a luminescent signal.

Assay [4] relates to MIA PaCa-2 cells (KRAS G12C mutant). Description: MIA PaCa-2 cell anti-proliferation (CellTiter-Glo). Format: cell-based. The note with it: MIA Paca-2 cells, 3 days, Table 7, read-out: MIA PaCa-2 (IC50). Put shortly:
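Viable-cell luminescence (CellTiter-Glo, ≥30 min at 25 °C) measured after a 3-day, 37 °C exposure to compounds at 9 points, 4-fold spaced, in DMEM containing 10% FBS plus 2.5% horse serum. IC50 derived versus no-inhibitor wells.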
(In general: ATP-based viability assays read luminescence as a measure of living cells.)

The target of assay [5] is PI3Kα (Homo sapiens (Human), UniProt P42336). Nature of the assay: Inhibition of PI3Kα efficacy assay (ADP-Glo kinase assay). Conditions: read-out: PI3Kα inhibitory activity (IC50). Format: biochemical. Summed up:
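ADP-Glo luminescent detection of ADP from PI3Kα acting on PI substrate with ATP, 60 min at RT; compounds in 8-point five-fold serial dilution from 2 mM DMSO stock. IC50 from four-parameter variable-slope fit.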

Read-outs that look alike come from different tables or passages of the source.

By IC50 is commonly meant the midpoint of a concentration-inhibition curve.

Chain of PI3Kα (P42336 whole entry): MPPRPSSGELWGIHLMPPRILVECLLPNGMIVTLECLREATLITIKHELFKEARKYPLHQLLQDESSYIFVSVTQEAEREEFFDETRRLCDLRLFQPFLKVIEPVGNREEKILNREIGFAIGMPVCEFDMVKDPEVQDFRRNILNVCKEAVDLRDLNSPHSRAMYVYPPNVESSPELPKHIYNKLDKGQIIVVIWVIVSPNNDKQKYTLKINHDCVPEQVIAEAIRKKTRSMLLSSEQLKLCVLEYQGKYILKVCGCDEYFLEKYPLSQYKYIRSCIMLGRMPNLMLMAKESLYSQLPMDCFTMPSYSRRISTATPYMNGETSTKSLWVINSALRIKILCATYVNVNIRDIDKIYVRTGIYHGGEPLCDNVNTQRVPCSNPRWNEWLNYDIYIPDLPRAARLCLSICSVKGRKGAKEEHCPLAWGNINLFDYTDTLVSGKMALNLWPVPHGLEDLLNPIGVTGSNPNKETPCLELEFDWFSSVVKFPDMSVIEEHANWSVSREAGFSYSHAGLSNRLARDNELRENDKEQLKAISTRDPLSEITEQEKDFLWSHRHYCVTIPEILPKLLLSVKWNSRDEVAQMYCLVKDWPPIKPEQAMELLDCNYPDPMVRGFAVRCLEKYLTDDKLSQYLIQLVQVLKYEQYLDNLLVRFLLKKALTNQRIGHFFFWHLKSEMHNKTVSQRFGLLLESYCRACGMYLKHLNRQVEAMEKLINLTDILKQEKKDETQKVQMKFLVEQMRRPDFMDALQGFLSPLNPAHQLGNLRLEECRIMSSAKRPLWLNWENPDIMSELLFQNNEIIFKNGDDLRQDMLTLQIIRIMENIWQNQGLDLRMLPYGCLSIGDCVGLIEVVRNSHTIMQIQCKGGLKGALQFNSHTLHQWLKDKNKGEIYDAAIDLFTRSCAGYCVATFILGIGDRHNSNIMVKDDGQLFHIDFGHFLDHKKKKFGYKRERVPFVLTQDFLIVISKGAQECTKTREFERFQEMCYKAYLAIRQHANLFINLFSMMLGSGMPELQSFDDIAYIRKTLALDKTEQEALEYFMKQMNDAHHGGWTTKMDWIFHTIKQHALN
Chain of PI3Kα (P27986 whole entry partner): as the sequence (P27986 whole entry partner) above
Chain of KRAS^G12C-SOS1 (P01116-2 other isoform, or with tags, fused parts or gaps G12C): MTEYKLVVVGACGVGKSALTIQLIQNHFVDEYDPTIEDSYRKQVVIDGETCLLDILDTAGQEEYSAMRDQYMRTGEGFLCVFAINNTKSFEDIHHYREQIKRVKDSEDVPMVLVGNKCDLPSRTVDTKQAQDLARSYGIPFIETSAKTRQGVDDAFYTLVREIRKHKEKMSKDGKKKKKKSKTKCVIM

`COc1ncc(-c2ccc3ncnc(C4CCN(C(=O)/C=C/C(C)=O)CC4)c3c2)cc1NS(=O)(=O)c1c(F)cccc1Cl` [Example 206, (E)-2-chloro-6-fluoro-N-(2-methoxy-5-(4-(1-(4-oxopent-2-enoyl)piperidin-4-yl)quinazolin-6-yl)pyridin-3-yl) benzenesulfonamide]: the IC50 in assay [1] was found to be 188 nM; in assay [2] (72 h), 6.9 nM; in assay [3] (Table 4) it was 15 nM; in assay [4] (Homo sapiens, 72 h) it was 21 nM; in assay [5] (Table 4), 3.9 nM.

In the case of `COc1ncc(-c2ccc3ncnc(N4CCN(C(=O)/C=C/C(C)=O)CC4)c3n2)cc1NS(=O)(=O)c1c(F)cccc1Cl` [Example 225, (E)-2-chloro-6-fluoro-N-(2-methoxy-5-(4-(4-(4-oxopent-2-enoyl)piperazin-1-yl)pyrido[3,2-d]pyrimidin-6-yl)pyridin-3-yl) benzene-sulfonamide], the IC50 in assay [1] was found to be 110 nM; in assay [2] (72 h), 26 nM; in assay [3] (Table 4), 8.9 nM; in assay [4] (Homo sapiens, 72 h) it was 15.6 nM; in assay [5] (Table 4), 0.5 nM.

Turning to `COc1ncc(-c2ccc3ncnc(N4CCN(C(=O)/C=C/C(C)=O)C[C@@H]4C)c3c2)cc1NS(=O)(=O)c1sc(C)nc1C` [Example 173, (S,E)-N-(2-methoxy-5-(4-(2-methyl-4-(4-oxopent-2-enoyl)piperazin-1-yl)quinazolin-6-yl)pyridin-3-yl)-2,4-dimethyl-thiazole-5-sulfonamide], the IC50 in assay [1] is 199 nM; in assay [2] (72 h), 62.6 nM; in assay [3] (Table 4), 16.5 nM; in assay [4] (Homo sapiens, 72 h), 9.2 nM; in assay [5] (Table 4), 2.2 nM.

On to `COc1ncc(-c2ccc3ncnc(N4CCN(C(=O)/C=C/C(C)=O)CC4)c3n2)cc1NS(=O)(=O)c1cc(F)ccc1F` [Example 217, (E)-2,5-difluoro-N-(2-methoxy-5-(4-(4-(4-oxopent-2-enoyl)piperazin-1-yl)pyrido[3,2-d]pyrimidin-6-yl)pyridin-3-yl) benzene-sulfonamide], for which the IC50 is 207 nM in assay [1]; 21.4 nM in assay [2] (72 h); 10.6 nM in assay [3] (Table 4); 21.1 nM in assay [4] (Homo sapiens, 72 h); 0.41 nM in assay [5] (Table 4).

Consider `COc1ncc(-c2ccc3ncnc(N4CCN(C(=O)/C=C/C(C)=O)CC4)c3c2)cc1NS(=O)(=O)c1ccc(C)cc1F` [Example 111], for which the IC50 is 364 nM in assay [1]; 90.1 nM in assay [2]; 23.2 nM in assay [3] (Table 2); 44.4 nM in assay [4]; 8.8 nM in assay [5] (Table 2).

`COc1ncc(-c2ccc3ncnc(C4=CCN(C(=O)/C=C/C(C)=O)CC4)c3c2)cc1NS(=O)(=O)c1ccc(F)cc1F` [Example 198, (E)-2,4-difluoro-N-(2-methoxy-5-(4-(1-(4-oxopent-2-enoyl)-1,2,3,6-tetrahydropyridin-4-yl)quinazolin-6-yl)pyridin-3-yl)benzenesulfonamide]: the IC50 in assay [1] was 133 nM; in assay [2] (72 h), 10.7 nM; in assay [3] (Table 4), 13.3 nM; in assay [4] (Homo sapiens, 72 h), 8.7 nM; in assay [5] (Table 4) it was 1.1 nM.

On to `COc1ncc(-c2ccc3ncnc(N4CCN(C(=O)/C=C/C(C)=O)CC4)c3c2)cc1NS(=O)(=O)c1sc(C)nc1C` [Example 160, (E)-N-(2-methoxy-5-(4-(4-(4-oxopent-2-enoyl)piperazin-1-yl)quinazolin-6-yl)pyridin-3-yl)-2,4-dimethylthiazole-5-sulfonamide], for which the IC50 came out at 169 nM in assay [1]; 53.8 nM in assay [2] (72 h); 15.2 nM in assay [3] (Table 4); 48.4 nM in assay [4] (Homo sapiens, 72 h); 2 nM in assay [5] (Table 4).

Regarding `COc1ncc(-c2ccc3ncnc(N4CCN(C(=O)/C=C/C(C)=O)CC4)c3n2)cc1NS(=O)(=O)c1cccc(F)c1F` [Example 218, (E)-2,3-difluoro-N-(2-methoxy-5-(4-(4-(4-oxopent-2-enoyl)piperazin-1-yl)pyrido[3,2-d]pyrimidin-6-yl)pyridin-3-yl) benzene-sulfonamide], the IC50 in assay [1] was 292 nM; in assay [2] (72 h), 16.1 nM; in assay [3] (Table 4) it was 10.8 nM; in assay [4] (Homo sapiens, 72 h), 21.5 nM; in assay [5] (Table 4), 2.6 nM.

For `COc1ncc(-c2ccc3ncnc(N4CCC5(CN(C(=O)/C=C/C(C)=O)C5)C4)c3c2)cc1NS(=O)(=O)c1c(F)cccc1F` [Example 42], the IC50 in assay [1] came out at 109 nM; in assay [2] it was 185 nM; in assay [3] (Table 2), 16.5 nM; in assay [4], 284 nM; in assay [5] it was 1.5 nM.

Consider `COc1ncc(-c2ccc3ncnc(N4CCN(C(=O)/C=C/C(C)=O)[C@H](C)C4)c3n2)cc1NS(=O)(=O)c1ccccc1F` [Example 228, (R,E)-2-fluoro-N-(2-methoxy-5-(4-(3-methyl-4-(4-oxopent-2-enoyl)piperazin-1-yl)pyrido[3,2-d]pyrimidin-6-yl)pyridin-3-yl)benzene-sulfonamide], for which the IC50 in assay [1] stood at 294 nM; in assay [2] (72 h), 13.5 nM; in assay [3] (Table 4), 15.9 nM; in assay [4] (Homo sapiens, 72 h), 34 nM; in assay [5] (Table 4) it was 2.8 nM.

Take `COc1ncc(-c2ccc3ncnc(C4CCN(C(=O)/C=C/C(C)=O)CC4)c3n2)cc1NS(=O)(=O)c1c(F)cc(F)cc1F` [Example 231, (E)-2,4,6-trifluoro-N-(2-methoxy-5-(4-(1-(4-oxopent-2-enoyl)piperidin-4-yl)pyrido[3,2-d]pyrimidin-6-yl)pyridin-3-yl)benzenesulfonamide]: the 50% inhibitory concentration (IC50) in assay [1] is 462 nM; in assay [2] (72 h), 3.6 nM; in assay [3] (Table 4), 16.1 nM; in assay [4] (Homo sapiens, 72 h) it was 13.2 nM; in assay [5] (Table 4), 3.6 nM.

For the molecule `COc1ncc(-c2ccc3ncnc(C4CCN(C(=O)/C=C/C(C)=O)CC4)c3c2)cc1NS(=O)(=O)c1c(F)cccc1F` [Example 205, (E)-2,6-difluoro-N-(2-methoxy-5-(4-(1-(4-oxopent-2-enoyl)piperidin-4-yl)quinazolin-6-yl)pyridin-3-yl) benzenesulfonamide], the IC50 in assay [1] was determined as 369 nM; in assay [2] (72 h), 32.9 nM; in assay [3] (Table 4), 9 nM; in assay [4] (Homo sapiens, 72 h), 78.9 nM; in assay [5] (Table 4), 1.3 nM.

As to `COc1ncc(-c2ccc3ncnc(N4CC5CCC(C4)N5C(=O)/C=C/C(C)=O)c3c2)cc1NS(=O)(=O)c1sc(C)nc1C` [Example 176, N-(2-methoxy-5-(4-(8-((E)-4-oxopent-2-enoyl)-3,8-diazabicyclo [3.2.1]octan-3-yl)quinazolin-6-yl)pyridin-3-yl)-2,4-dimethyl-thiazole-5-sulfonamide], the IC50 in assay [1] turned out to be 113 nM; in assay [2] (72 h), 48.6 nM; in assay [3] (Table 4) it was 13.9 nM; in assay [4] (Homo sapiens, 72 h), 29.3 nM; in assay [5] (Table 4), 2.6 nM.

With `COc1ncc(-c2ccc3ncnc(N4CCN(C(=O)/C=C/C(C)=O)CC4)c3c2)cc1NS(=O)(=O)c1ccc(C(F)(F)F)cc1F` [Example 124, (E)-2-fluoro-N-(2-methoxy-5-(4-(4-(4-oxopent-2-enoyl)piperazin-1-yl)quinazolin-6-yl)pyridin-3-yl)-4-(trifluoromethyl)benzenesulfonamide], the IC50 in assay [1] is 730 nM; in assay [2] (72 h) it was 83.9 nM; in assay [3] (Table 2) it was 61.4 nM; in assay [4] (Homo sapiens, 72 h), 58.4 nM; in assay [5] (Table 2), 4.4 nM.

On to `COc1ncc(-c2ccc3ncnc(N4CCN(C(=O)/C=C/C(C)=O)CC4)c3n2)cc1NS(=O)(=O)c1ccncc1F` [Example 220, (E)-3-fluoro-N-(2-methoxy-5-(4-(4-(4-oxopent-2-enoyl)piperazin-1-yl)pyrido[3,2-d]pyrimidin-6-yl)pyridin-3-yl) pyridine-4-sulfonamide], for which the IC50 was found to be 274 nM in assay [1]; 212 nM in assay [2] (72 h); 11.4 nM in assay [3] (Table 4); 58.5 nM in assay [4] (Homo sapiens, 72 h); 1.1 nM in assay [5] (Table 4).

With `COc1ncc(-c2ccc3ncnc(N4CCN(C(=O)/C=C/C(C)=O)CC4)c3c2)cc1NS(=O)(=O)c1ccc(F)cc1` [Example 92, (E)-4-fluoro-N-(2-methoxy-5-(4-(4-(4-oxopent-2-enoyl)piperazin-1-yl)quinazolin-6-yl)pyridin-3-yl)benzenesulfonamide], the IC50 came out at 369 nM in assay [1]; 56.9 nM in assay [2] (72 h); 51.1 nM in assay [3] (Table 2); 31 nM in assay [4] (Homo sapiens, 72 h); 6.4 nM in assay [5] (Table 2).

Source of the values: patent publication US20250145589A1, “PYRIDINE DERIVATIVE AND USE THEREOF” (SICHUAN HUIYU PHARMACEUTICAL CO., LTD., priority 2021, published 2025).
